In patent publication US9028879B2, “Chromium complexes as enhancers of brain glucose transporters” (JDS Therapeutics, LLC, priority 2009, dated 2015):
Marks after values point to notes of the source that are not given here.

What was measured:
[1] = test system: subject having GLUT1 deficiency syndrome; assay: Example 3: treatment of subject with GLUT1 deficiency syndrome; assay type: in vivo; settings: 50 μg to 5000 μg/day, orally, after a period of time
Description: A subject is identified as having GLUT1 deficiency syndrome. The subject presents with one or more symptoms associated with GLUT1 deficiency syndrome such as the presence of a SLC2A1 mutation, neurological problems associated with GLUT1 deficiency such as stiffness caused by abnormal tensing of the muscles (spasticity), difficulty in coordinating movements (ataxia), and speech difficulties (dysarthria). The subject can experience episodes of confusion, lack of energy (lethargy), headaches, muscle twitches (myoclonus), or involuntary irregular eye movements, particularly before meals.
The subject is administered between 50 μg and 5000 μg chromium histidinate, chromium picolinate, or chromium histidinate/chromium picolinate combination complex/day. The chromium histidinate is administered orally.

[2] = test system: subject having Alzheimer's disease; assay: Example 5: treatment of subject with Alzheimer's disease with standard therapeutics; assay type: in vivo; settings: 50 μg to 5000 μg chromium orally with standard therapeutics, over a period of five days
[3] = reported (Kaats 1998; Cefalu 1999); cited from earlier work
[4] = Body weight and blood glucose in high fat diet rats; assay type: in vivo, male Wistar rats
Description: (§1) Briefly, insulin resistance and hyperglycemia were induced in male Wistar rats by feeding a high fat diet (HFD, 40% of calories as fat). A healthy control group received a standard diet (12% of calories as fat). Rats were fed their diets throughout the 12 week study.
(§2) Rats (10/group) were divided into groups: healthy control (Control), HFD, and HFD+CrHis. Chromium (Cr) treated rats were fed CrHis (110 mcg/kg body wt/d). Cr treatment started at the beginning of the study and was continued for 12 weeks. […] Body weight, serum chromium levels, and blood glucose levels were also measured.

[5] = Serum and brain chromium levels in high fat diet rats
Description: as §1, §2

[6] = test system: subject having Parkinson's disease; assay: Example 6: treatment of subject with Parkinson's disease; assay type: in vivo; settings: 50 μg to 5000 μg, orally, over time
Protocol: A subject is identified as having Parkinson's disease by conventional methods.
The subject is administered between 50 μg and 5000 μg chromium polyhistidinate. The chromium is administered orally.

[7] = HFD rats, CrHis 110 mcg/kg body wt/d, 12 weeks, mean ± s.e.m.
[8] = compared to the high fat diet alone

Substance	symptoms of GLUT1 deficiency [1]	subject's condition, as assessed by one or more symptoms of the disease [2]	weight loss and changes in body composition [3]	Blood Glucose [4, 7]	Body Weight [4, 7]	blood glucose levels, change [4, 8]	body weight, change [4, 8]	Brain Chromium ([5]; HFD rats, CrHis 110 mcg/kg body wt/d, 12 weeks, brain tissue homogenates, mean ± s.e.m.)	Serum Chromium [5, 7]	brain chromium levels, change [5, 8]	serum chromium levels, change [5, 8]	subject's condition, as assessed by one or more symptoms of the disease [6]
chromium picolinate	reduction in one or more of the symptoms	does not worsen or improves	modest weight loss	–	–	–	–	–	–	–	–	–
chromium histidinate [CrHis]	reduction in one or more of the symptoms	–	–	116.4 ± 2.1^c mg/dL	315.1 ± 1.9^c g	decreased	decreased	17.7 ± 0.2^c ng/g	22.0 ± 0.6^c ng/g	significantly increased	significantly increased	–
chromium polyhistidinate	–	–	–	–	–	–	–	–	–	–	–	does not worsen or improves
